Experimental data: patent publication US7816075B2, “Methods and compositions using stearoyl-CoA desaturase to identify triglyceride reducing therapeutic agents” (Xenon Pharmaceuticals Inc., priority 2000, dated 2010)
Each block holds one compound with its values, some of them ahead of it.

Legend:
[1] = tested on: human SCD mRNA expression; test: Northern blot of SCD mRNA in treated HepG2 cells; format: cell-based; conditions: range of doses, cholesterol 10 μg/ml with 1 μg/ml 25-hydroxycholesterol, FIG. 15
Method: FIG. 15. Human HepG2 cells cultured and treated with a range of doses of arachidonic acid, DHA or 10 μg/ml cholesterol or EPA as indicated. Total mRNA was isolated and quantified. Isolation and Analysis of RNA-Total RNA was isolated from HepG2 cells using the acid guanidinium-phenol-chloroform extraction method. Twenty micrograms of total RNA was separated by 0.8% agarose/2.2 M formaldehyde gel electrophoresis and transferred onto nylon membrane. The membrane was hybridized with ^32P-labeled human SCD cDNA probe generated by PCR as follows: pAL15 probe was used as control for equal loading. We tested whether the human SCD gene expression was also repressed by cholesterol and polyunsaturated fatty acids. Human HepG2 cells were cultured and then treated with 100 μM arachidonic acid, DHA or 10 μg/ml cholesterol and 1 μg/ml of 25-hydroxycholesterol cholesterol as we have described previously. Total mRNA was isolated and subjected to northern blot analysis using a probe corresponding to the human cDNA and generated by the PCR method using primers based on published human SCD cDNA sequence.

[2] = tested on: human SCD promoter; test: Human SCD promoter-luciferase reporter (pSCD-500) in transfected HepG2 cells; format: cell-based; conditions: for SCD promoter activity: HepG2 cells co-transfected with mature SREBP-1a, in the presence of cholesterol, fatty acids as albumin complexes (data not shown)
Method: The decrease in promoter activity in the reporter construct correlated with decreases in endogenous SCD mRNA and protein levels. […] Our studies indicate that like the mouse SCD1 gene, the human SCD gene is regulated by polyunsaturated fatty acids and cholesterol at the level of gene transcription and that SREBP plays a role in the transcriptional activation of this gene. Cell Culture and DNA transfections—HepG2 cells, were grown in Low Glucose DMEM supplemented with 10% Fetal Bovine Serum and 1% Penicillin/Streptomycin solution and maintained at 37 C, 5% CO2 in a humidified incubator. Cells were passaged into 6 cm dishes to give 40-70% confluence in about 12-16 hours. Cells were then transfected with 5 μg plasmid DNA per plate of pSCD-500 or the Basic PGL3 reporter as well as well as the pRL-TK, internal controls (Promega) using the LT-1 transfection reagent (Pan Vera). After 48 hours, cells were rinsed with PBS and then treated in Williams' E Media, a fatty acid-free media, containing insulin, dexamethasone, and appropriate concentrations of albumin-conjugated fatty acids as indicated in figures and legends. Cells were also treated with ethanol alone (as control) or cholesterol (10 μg/mL) and 25-OH cholesterol (1 μg/mL) dissolved in ethanol. After an additional 24 h, extracts were prepared and assayed for luciferase activity. Non-transfected cells were used as the blank and Renilla Luciferase was used as an internal control. Cell extracts were assayed for protein according to Lowry, and all results were normalized to protein concentration as well as to renilla luciferase counts. Each experiment was repeated at least three times, and all data are expressed as means±SEM. […] To observe the regulatory effects of mature SREBP-1a and PUFAs on the activity of SCD promoters, HepG2 hepatic cells were transiently co-transfected with 20 ng (per 6-cm dish) of plasmid DNA containing the human SCD promoter as described above but this time the transfections were carried out in the presence of cholesterol to inhibit the maturation of the endogenous SREBP and thus ensure that there was little mature form of the endogenous SREBP present in the cells. After transfection, the cells were then treated with, arachidonic acid, EPA and DHA as albumin complexes and luciferase activity was then assayed using a luminometer. If SREBP mediates PUFA repression of the human SCD gene, SCD promoter activity would not diminish upon treatment the transfected cells with PUFA.

[3] = target: T1, SCD (Homo sapiens, UniProt O00767); conditions: known from the literature; cited from earlier work
T1 sequence (O00767 1-359): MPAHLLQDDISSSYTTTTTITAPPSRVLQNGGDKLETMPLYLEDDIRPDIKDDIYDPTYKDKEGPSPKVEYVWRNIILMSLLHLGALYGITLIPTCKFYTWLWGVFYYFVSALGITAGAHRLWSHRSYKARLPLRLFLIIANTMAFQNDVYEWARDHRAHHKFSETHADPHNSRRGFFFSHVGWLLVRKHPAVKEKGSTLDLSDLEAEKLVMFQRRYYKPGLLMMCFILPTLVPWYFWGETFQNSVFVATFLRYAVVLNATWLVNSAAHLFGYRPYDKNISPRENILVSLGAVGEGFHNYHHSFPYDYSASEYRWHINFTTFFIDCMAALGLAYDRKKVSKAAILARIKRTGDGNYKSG

[4] = tested on: SCD1 mRNA; conditions: known from the literature; cited from earlier work
[5] = tested on: SCD protein; test: Western blot of SCD protein in treated HepG2 cells; format: cell-based, human; conditions: western blot of protein extracts (data not shown)
Method: Immunoblotting—Cell extracts were prepared from HepG2 cells that had been treated with the various fatty acids or cholesterol as described by Heinemann et al (17). The same amount of protein (60 μg) from each fraction was subjected to 10% SDS-polyacrylamide gel electrophoresis and transferred to Immobilon-P transfer membranes at 4° C. After blocking with 10% non-fat milk in TBS buffer (pH 8.0) plus 0.5% Tween at 4° C. overnight, the membrane was washed and incubated with rabbit anti-rat SCD as primary antibody (17) and goat anti-rabbit IgG-HRP conjugate as the secondary antibody. Visualization of the SCD protein was performed with ECL western blot detection kit. We tested whether the human SCD gene expression was also repressed by cholesterol and polyunsaturated fatty acids. Human HepG2 cells were cultured and then treated with 100 μM arachidonic acid, DHA or 10 μg/ml cholesterol and 1 μg/ml of 25-hydroxycholesterol cholesterol as we have described previously. Total mRNA was isolated and subjected to northern blot analysis using a probe corresponding to the human cDNA and generated by the PCR method using primers based on published human SCD cDNA sequence.

[6] = target: T2, SCD1 (Mus musculus, UniProt P13516); test: SCD1 desaturase activity assay, transfer of 3H from 3H-stearoyl CoA to water in liver microsomes; format: biochemical; conditions: for inhibition of SCD1: pre-conjugated to CoA (microsomes incubated with CoA and ATP before 3H-stearoyl CoA)
T2 construct: from tissue; host or cells: mouse liver microsomes (wild type, after a high carbohydrate fat-free diet)
T2 sequence (P13516 1-355): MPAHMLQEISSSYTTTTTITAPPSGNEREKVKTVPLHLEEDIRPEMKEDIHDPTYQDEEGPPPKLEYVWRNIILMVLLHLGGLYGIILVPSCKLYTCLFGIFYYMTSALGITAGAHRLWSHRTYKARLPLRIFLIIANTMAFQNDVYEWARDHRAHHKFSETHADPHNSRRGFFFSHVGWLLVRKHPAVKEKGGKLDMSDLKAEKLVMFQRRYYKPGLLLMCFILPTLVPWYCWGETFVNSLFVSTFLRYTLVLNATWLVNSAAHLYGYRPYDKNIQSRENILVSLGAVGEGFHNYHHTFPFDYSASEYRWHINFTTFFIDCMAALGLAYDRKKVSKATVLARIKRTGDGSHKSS
Method: Microsomes from wild type livers were used for this experiment. A turnover number for SCD1 activity under these conditions was estimated at 2 nmol/min/mg protein, which is about half that observed at 37° C.
Livers were collected from wild type and SCD1 knockout mice following 3 days on a high carbohydrate fat-free diet (this induces SCD1 expression in liver by about 50-fold), homogenized and a portion used for microsome purification. ^3H-water production was determined for 15 minutes at RT (room temperature) in both homogenate and microsome preparations at equivalent protein concentration, followed by quenching the reaction with acid and using charcoal to separate substrate from product. Quenching the sample with acid prior to the addition of substrate offers a blank, or control containing background radioactivity without any desaturation reaction. […] The “window”, or SCD1-dependent desaturation in this assay, is a highly visible and significant 160-fold difference between wild type and SCD1 knockout microsomes.
Microsomes from wild type mice were used to test the effectiveness of three known inhibitors of SCD1: conjugated linoleic acid (CLA), 9-thia stearic acid (9-thia) and sterculic acid (SA). […] This experiment establishes that SCD1 activity can be inhibited with known inhibitors but they appear to require conjugation with CoA. An important use of this screening assay is to find small molecules that are potent inhibitors of SCD1 biological activity without conjugation to CoA.
In a preferred embodiment, the assay makes use of ^3H-stearoyl CoA (with the ^3H on the 9 and 10 carbon atoms), the substrate for SCD1. Desaturation by SCD1, produces oleoyl CoA and 3H-water molecules. The reaction is run at room temperature, quenched with acid and then activated charcoal is used to separate unreacted substrate from the radioactive water product. The charcoal is sedimented and amount of radioactivity in the supernatant is determined by liquid scintillation counting. This assay is specific for SCD1-dependent desaturation as judged by the difference seen when comparing the activity in wild type and SCD1-knockout tissues. Further, the method is easily adapted to high throughput as it is cell-free, conducted at room temperature and is relatively brief (1 hour reaction time period versus previous period of 2 days). This procedure is illustrated more fully in FIGS. 17 to 20.

[7] = added as the free fatty acid, microsomes from wild type mice (FIG. 19 panel A)

Compound: CCCCC/C=C\C/C=C\C/C=C\C/C=C\CCCC(=O)O [AA, arachidonic acid]
- human SCD mRNA expression [1]: decreased the human SCD mRNA expression in a dose dependent manner
- SCD promoter activity [2]: continued to repress SCD promoter activity with only a slight attenuation

Compound: CCCCCC/C=C/C=C\CCCCCCCC(=O)O [Cis-9, trans-11 conjugated linoleic acid]
- inhibition of SCD enzyme activity [3]: does not

Compound: CCCCC/C=C\C=C\CCCCCCCCC(=O)O [Cis-12, trans-10 conjugated linoleic acid]
- inhibition of SCD enzyme activity [3]: effectively inhibit SCD enzyme activity
- abundance of SCD1 mRNA [4]: reduce the abundance of SCD1 mRNA

Compound: CC/C=C\C/C=C\C/C=C\C/C=C\C/C=C\C/C=C\CCC(=O)O [DHA]
- human SCD mRNA expression [1]: decreased the human SCD mRNA expression in a dose dependent manner
- SCD promoter activity [2]: continued to repress SCD promoter activity with only a slight attenuation

Compound: CC/C=C\C/C=C\C/C=C\C/C=C\C/C=C\CCCC(=O)O [EPA]
- SCD promoter activity [2]: continued to repress SCD promoter activity with only a slight attenuation

Compound: CC(C)CCC[C@@H](C)[C@H]1CC[C@H]2[C@@H]3CC=C4C[C@@H](O)CC[C@]4(C)[C@H]3CC[C@]12C [cholesterol]
- human SCD mRNA expression [1]: decreased the human SCD mRNA expression in a dose dependent manner
- SCD promoter-luciferase activity ([2]; transiently transfected HepG2 cells): decreased the SCD promoter-luciferase activity
- levels of the SCD protein [5]: decreased the levels of the SCD protein

- suppression of SCD1 activity [6, 7]: none were effective
- inhibition of SCD1 ([6]; FIG. 19 panel B): graded inhibition
- suppression of SCD1 activity ([6]; pre-conjugated to CoA, preincubation condition, FIG. 19 panel B): ~100%
Compound: CCCCCCCCC1=C(CCCCCCCC(=O)O)C1 [sterculic acid, 8-(2-octyl-cyclopropenyl)octanoic acid]

- suppression of SCD1 activity [6, 7]: none were effective
- inhibition of SCD1 ([6]; FIG. 19 panel B): graded inhibition
Compound: conjugated linoleic acid
